In the SangsterLogP compilation:

Experiments:
[1] = method code SF-AS, from DOI: 10.1016/j.arabjc.2011.11.013
[2] = method code SF-AS, from DOI: 10.1016/0378-5173(85)90003-1
[3] = method code SF-HPLC, from Thijssen, W. (1981). The relationship between Log P, Rm, log k' and the constants pi and f: a study on penicillins. Eur J Med Chem, 16(5)449-452.
[4] = pH 7.4
[5] = not given; remark: listed apart in the source
[6] = not given; remark: listed apart in the source
[7] = not given; remark: listed apart in the source
[8] = method code SF-HPLC, from DOI: 10.1016/j.ejps.2012.04.024, PMID: 22609526
[9] = method code SF-HPLC, from DOI: 10.1016/j.ejmech.2003.12.002, PMID: 15051170
[10] = not given; remark: listed apart in the source
[11] = method code SF-RC, from DOI: 10.1016/j.bmc.2006.11.022, PMID: 17293116; conditions: pH 7.4
[12] = not given; remark: listed apart in the source
[13] = method code SF-AS, from DOI: 10.3109/03639048709068705
[14] = not given; remark: listed apart in the source
[15] = not given; remark: listed apart in the source
[16] = method code SF, from DOI: 10.1002/ps.2780350215
[17] = from Jayashree, Bs.; Sahu, A.; MM, S.; Venugopala, K. (2006). Synthesis, characterization and determination of partition coefficient of some triazolo thiadiazinyl chlorocoumarin derivatives for their …; conditions: pH 7.4
[18] = not given; remark: listed apart in the source
[19] = method code SF-AS, from PMID: 872227; conditions: pH 7.2
[20] = method code SF-AS, from DOI: 10.1016/s0022-5347(24)07568-2, PMID: 4149453; conditions: pH 7.5
[21] = not given; remark: listed apart in the source
[22] = method code SF-HPLC, from DOI: 10.1023/a:1016359301852, PMID: 24271710
[23] = not given; remark: listed apart in the source

`O=C(CNc1ccccc1)Nc1ccc(Cl)cc1C(=O)c1ccccc1` showed a logP [1] of 4.24.
Work on `Cc1ccccc1OCC(O)CNCC(O)COc1ccccc1C` (stereo not given) yielded a logP of 3.67.
`CC(=O)OCC1=C(C(=O)OCOC(=O)C(C)(C)C)N2C(=O)C(NC(=O)Cc3cccs3)C2SC1` (stereo not given) gave a logD ([2]; pH 4.6) of 1.57.
`Cc1onc(-c2c(Cl)ccc(O)c2F)c1C(=O)NC1SC2N(C1=O)C(C(=O)O)C2(C)C` (stereo not given) showed a logP [3] of 2.23.
For `CNC(=O)C(O)C1(O)CCC2C3CCC4=CC(=O)C=CC4(C)C3C(O)CC21C` (stereo not given), the logD [4] was 1.
Molecule `Nc1ccc(C(=O)OCC(=O)Nc2ccc(Cl)cc2C(=O)c2ccccc2)cc1` has a logP [1] of 4.78.
`CC(C)NCC(COc1cccc2ccccc12)OC(=O)c1ccc([N+](=O)[O-])cc1` (stereo not given) gave a logP [5] of 5.97.
`O=C(Nc1ccc2ncnc(Nc3ccc(F)c(Cl)c3)c2c1)c1ccc(I)cc1` showed a logP [6] of 4.83.
For `CCCCOc1cc(C(=O)NCCN(CC)CC)c2ccccc2n1`, the logP [7] was 4.19.
In the case of `COc1cc(OC)c2c(=O)c(OC)c(-c3ccc(OC)c(OC)c3)oc2c1`, the logP [8] is reported as 3.85.
Work on `CC1CN(C2C=CC(COP(=O)(NC(C)C(=O)O)Oc3ccc(Br)cc3Cl)O2)C(=O)NC1=O` (stereo not given) yielded a logP [9] of 1.81.
`CC(=O)N(C[C@@H](O)CO)c1c(I)c(C(=O)NC(CO)CO)c(I)c(N(C(C)=O)[C@@H](O)CO)c1I` showed a logP [10] of -2.64.
`O=[N+]([O-])c1ccc(OCC(O)CNCC(O)COc2ccccc2)cc1` (stereo not given) gave a logP of 2.62.
`O=C(Nc1ccc2ncnc(Nc3ccc(F)c(Cl)c3)c2c1)c1cccc(I)c1` gave a logP [6] of 5.58.
`Cn1nnnc1SCC1=C(C(=O)OCOC(=O)C(C)(C)C)N2C(=O)C(NC(=O)C(O)c3ccccc3)C2SC1` (stereo not given) gave a logD ([2]; pH 4.5) of 0.85.
`CNc1ccc(-c2nc3ccc(-c4nc5ccc(Cl)cc5s4)cc3s2)cc1` showed a logD [11] of 3.05.
With `COc1cc(C=Cc2cccnc2)ccc1C=Cc1cccnc1` the logP [12] was 4.32.
With `CCCCCC(=O)OC(CNC(C)C)COc1cccc2ccccc12` (stereo not given) the logP [13] was 6.85.
In the case of `CC=CC(=O)OC(CNC(C)C)COc1cccc2ccccc12` (stereo not given), the logP [5] is reported as 3.78.
For `C[C@]12C=CC(=O)C=C1CC[C@@H]1[C@@H]2[C@@H](O)C[C@@]2(C)[C@H]1CC[C@]2(O)[C@@H](O)C(=O)NCc1ccccc1`, the logD [4] was 1.51.
In the case of `CCN(CC)CCC(=O)NC1c2ccccc2Sc2c(C)cccc21` (stereo not given), the logP [14] is reported as 4.1.
In the case of `O=C(OC[C@H]1O[C@@H](Oc2c(-c3ccc(O)c(O)c3)oc3cc(O)cc(O)c3c2=O)[C@H](O)[C@@H](O)[C@H]1O)c1cc(O)c(O)c(O)c1`, the logP [8] is reported as -0.97.
With `CO[C@H]1CC[C@H]2[C@@H]3CC[C@H]4CC(=O)[C@H](C)C[C@]4(C)[C@H]3CC[C@]12C` the logP [15] was 5.43.
Work on `CCc1cccc(CC)c1NC(=O)c1c(C)n(Cc2ccccc2)c(C)cc1=O` yielded a logP [16] of 2.9.
With `CCCNC(=O)[C@H](O)[C@@]1(O)CC[C@H]2[C@@H]3CCC4=CC(=O)C=C[C@]4(C)[C@H]3[C@@H](O)C[C@@]21C` the logD [4] was 1.43.
With `O=c1oc2ccc(Cl)cc2cc1C1=Nn2c(nnc2-c2ccccc2O)SC1` the logD [17] was 0.36.
`Cn1nnnc1SCC1=C(C(=O)OCOC(=O)C(C)(C)C)N2C(=O)C(NC(=O)Cc3csc(N)n3)C2SC1` (stereo not given) gave a logD ([2]; pH 4.6) of 1.36.
Work on `C(=C\c1ccc(/C=C/c2ccncc2)cc1)/c1ccncc1` yielded a logP [12] of 3.93.
Work on `Cc1cc(=O)c(C(=O)Nc2ccccc2Cl)c(C)n1CCc1ccccc1` yielded a logP [16] of 2.79.
`O=c1oc2ccc(Cl)cc2cc1C1=Nn2c(COc3ccc(Cl)cc3Cl)nnc2SC1` gave a logD [17] of 1.4.
`COc1ccc(CCNCC(O)COc2cccc(C)c2)cc1OC` (stereo not given) showed a logP of 3.
For `COC(=O)C(C)NP(=O)(OCC1C=CC(n2cc(C)c(=O)[nH]c2=O)O1)Oc1c(OC)cccc1OC` (stereo not given), the logP [9] was 0.4.
With `O=C(CNc1ccc(O)cc1)Nc1ccc(Cl)cc1C(=O)c1ccccc1` the logP [1] was 3.5.
`C[C@@H]1C[C@@]2(C)[C@@H](CC[C@@H]3[C@@H]2CC[C@]2(C)[C@@H](O)CC[C@@H]32)CC1=O` showed a logP [15] of 3.99.
`CCCCCCCCc1ccc(OC(=O)Cn2ccc3cc(C(=O)O)ccc32)cc1` gave a logP [18] of 6.3.
For `COc1ccc(CN2CCN(c3ccccc3)CC2)c(OC)c1OC`, the logP [7] was 3.
With `CCCCCCOc1ccc(NC(=O)OCCN2CCOCC2)c(C)c1` the logD [19] was 3.9.
`COC(=O)CCC(NC(=O)c1ccc(N(C)Cc2cnc3nc(N)nc(N)c3n2)cc1)C(=O)OC` (stereo not given) gave a logD [20] of 0.54.
`O=C(O)[C@H]1O[C@@H](Oc2c(-c3ccc(O)c(O)c3)oc3cc(O)cc(O)c3c2=O)[C@H](O)[C@@H](O)[C@@H]1O` gave a logP [8] of 0.79.
`C[C@@H]1CC2=CC(=O)CC[C@@H]2[C@H]2CC[C@@]3(C)[C@@H](CC[C@]3(C)O)[C@@H]21` gave a logP [15] of 3.19.
Work on `Cc1ccc(C(=O)CCCN2CCC(O)(c3ccc(Cl)cc3)CC2)cc1` yielded a logP [21] of 3.44.
For `CCCCCCCCOC(=O)CCC(NC(=O)c1ccc(N(C)Cc2cnc3nc(N)nc(N)c3n2)cc1)C(=O)OCCCCCCCC` (stereo not given), the logD [20] was 2.16.
In the case of `C#CC1(OC(=O)c2ccn(C)c2)CCC2C3CCC4=CC(=O)CCC4(C)C3CCC21C` (stereo not given), the logP [22] is reported as 4.49.
`Cc1cccc2c1Sc1ccccc1C2NC(=O)CCN(C)C` (stereo not given) gave a logP [14] of 3.06.
Molecule `CC(C)NCC(COc1cccc2ccccc12)OC(=O)C(C)(C)C` (stereo not given) has a logP [13] of 6.44.
Molecule `C#CC1(O)CC[C@H]2[C@@H]3CCC4=CC(=O)CC[C@]4(C)[C@H]3CC[C@@]21C` (stereo in doubt) has a logP [22] of 3.11.
In the case of `CC(CCN1CCC(O)(c2ccc(Cl)cc2)CC1)c1ccc(F)cc1` (stereo not given), the logP [21] is reported as 4.02.
`CCCCCOC(=O)CC[C@H](NC(=O)c1ccc(N(C)Cc2cnc3nc(N)nc(N)c3n2)cc1)C(=O)OCCCCC` showed a logD [20] of 1.33.
In the case of `Cc1onc(-c2c(Cl)cccc2Cl)c1C(=O)NC1C(=O)N2C1S(=O)C(C)(C)C2C(=O)O` (stereo not given), the logP [3] is reported as 2.57.
Work on `CCC(=O)OC(CNC(C)C)COc1cccc2ccccc12` (stereo not given) yielded a logP [13] of 4.99.
In the case of `C#C[C@]1(O)CC[C@H]2[C@@H]3CCC4=CC(=O)CC[C@@H]4[C@H]3CC[C@@]21C`, the logP [22] is reported as 2.97.
`CC(=O)N(CCO)c1c(I)c(C(=O)NC(CO)CO)c(I)c(C(=O)NC(CO)CO)c1I` showed a logP [10] of -2.49.
With `O=c1oc2ccc(Cl)cc2cc1C1=Nn2c(nnc2-c2cccc(Br)c2)SC1` the logD [17] was 1.53.
For `Fc1ccc(C(c2ccc(F)cc2)N2CCN(C/C=C/c3ccccc3)CC2)cc1`, the logP [7] was 4.83.
In the case of `CCN(CC)CCC(=O)NC1c2ccccc2Oc2c(C)cccc21` (stereo not given), the logP [14] is reported as 3.55.
Work on `CCCCOc1ccc(NC(=O)OCCN2CCOCC2)c(C)c1` yielded a logD [19] of 2.82.
`CC(=O)N(CC(O)CO)c1c(I)c(C(=O)NCC(O)CO)c(I)c(C(=O)NCC(O)CO)c1I` (stereo not given) showed a logP [10] of -3.08.
Molecule `COC(=O)C(C)NP(=O)(OCC1C=CC(n2cc(C)c(=O)[nH]c2=O)O1)Oc1ccccc1Br` (stereo not given) has a logP [9] of 0.95.
With `O=C(Nc1ccc2ncnc(Nc3ccc(F)c(Cl)c3)c2c1)c1ccc(F)cc1` the logP [6] was 4.55.
With `CC1N=C2C3=C(CCC(c4ccccc4)C3)C(C(N)=O)=CN2C1C` (stereo not given) the logP [23] was 3.21.
Molecule `CN(C)c1ccc(-c2nc3ccc(-c4nc5ccc(F)cc5s4)cc3s2)cc1` has a logD [11] of 2.99.
With `Cc1cn2c(n1)C1CC(c3ccccc3)CCC1C(C(=O)N(C)C)=C2` (stereo not given) the logP [23] was 2.77.
In the case of `CC(=O)OC(CNC(C)C)COc1cccc2ccccc12` (stereo not given), the logP [5] is reported as 4.34.
For `Cc1cc(=O)c(C(=O)Nc2ccccc2)c(C)n1CCc1ccccc1`, the logP [16] was 2.04.
With `COc1ccc(C(=O)CCCN2CCC(O)(c3ccc(Cl)cc3)CC2)cc1` the logP [21] was 2.9.
In the case of `CNc1ccc(-c2nc3ccc(-c4nc5ccccc5s4)cc3s2)cc1`, the logD [11] is reported as 2.34.
Molecule `CC1N=C2C3=C(CCC(c4ccccc4)C3)C(C(=O)NCCO)=CN2C1C` (stereo not given) has a logP [23] of 2.81.
`CCCCCOc1ccc(NC(=O)OCCN2CCOCC2)c(C)c1` gave a logD [19] of 3.38.
In the case of `Cc1onc(-c2ccccc2Cl)c1C(=O)NC1C(=O)N2C1S(=O)C(C)(C)C2C(=O)O` (stereo not given), the logP [3] is reported as 2.
`C(=Cc1cccnc1)c1ccc(C=Cc2cccnc2)cc1` gave a logP [12] of 3.73.
